According to patent US10294202B2, “Pyrrolidinones as herbicides” (FMC Corporation, priority 2013, dated 2019):

Tests used:
surinam grass = assay: Test E preemergence herbicide test; assay type: in vivo, Brachiaria decumbens; parameters: key: 0 = no effect, 100 = complete control
In short: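 Test chemicals, formulated in a surfactant-containing non-phytotoxic solvent blend, are applied preemergence to seeded silt loam soil. After 21 days in the greenhouse, response is scored visually relative to controls, where 100 means complete control and 0 means no effect.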

bromegrass, downy = assay: Test C pre-/postemergence herbicide test; assay type: in vivo, Bromus tectorum
In short: (§1)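 Plants grown and held in a greenhouse for 13 to 15 days post-spray, then rated 0–100 by visual comparison with controls. Pre treatments targeted seeds in loam and sand; post treatments targeted 1- to 4-leaf plants in peat-based potting medium.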

cupgrass, woolly = assay: Test C pre-/postemergence herbicide test; assay type: in vivo, Eriochloa villosa
In short: as §1

pigweed, palmer = assay: Test E preemergence herbicide test; assay type: in vivo, Amaranthus palmeri; parameters: key: 0 = no effect, 100 = complete control
Description: Seeds of plant species selected from corn (Zea mays), soybean (Glycine max), velvetleaf (Abutilon theophrasti), lambsquarters (Chenopodium album), wild poinsettia (Euphorbia heterophylla), pigweed, palmer (palmer pigweed, Amaranthus palmeri), waterhemp (common waterhemp, Amaranthus rudis), surinam grass (Brachiaria decumbens), crabgrass, large (large crabgrass, Digitaria sanguinalis), crabgrass, Brazil (Brazilian crabgrass, Digitaria horizontalis), panicum, fall (fall panicum, Panicum dichotomiflorum), foxtail, giant (giant foxtail, Setaria faberii), foxtail, green (green foxtail, Setaria viridis), goosegrass (Eleusine indica), johnsongrass (Sorghum halepense), ragweed (common ragweed, Ambrosia elatior), barnyardgrass (Echinochloa crus-galli), sandbur (southern sandbur, Cenchrus echinatus), arrowleaf […] rhombifolia), ryegrass, Italian (Italian ryegrass, Lolium multiflorum), dayflower, VA (Virginia dayflower, Commelina virginica), field bindweed (Convolvulus arvensis), morningglory (Ipomoea coccinea), nightshade (eastern black nightshade, Solanum ptycanthum), kochia (Kochia scoparia), nutsedge, yellow (yellow nutsedge, Cyperus esculentus), cocklebur (common cocklebur, Xanthium strumarium), smartweed (ladysthumb smartweed, Polygonum Persicaria) and beggarticks (hairy beggarticks, Bidens pilosa), were planted into a silt loam soil and treated preemergence with test chemicals formulated in a non-phytotoxic solvent mixture which included a surfactant. Treated plants and controls were maintained in a greenhouse for 21 days, after which time all species were compared to controls and visually evaluated. Plant response ratings, summarized in Table E, are based on a scale of 0 to 100 where 0 is no effect and 100 is complete control. A dash (-) response means no test result.

windgrass = assay: Test D pre-/postemergence herbicide test; assay type: in vivo, Apera spica-venti; conditions: Postemergence, Windgrass, scale 0 to 100
In short: (§2)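 Dual-timing greenhouse test: preemergence application to seeds in silt loam soil, postemergence application to 1- to 4-leaf plants in peat-based medium. Chemicals were formulated with surfactant in non-phytotoxic solvent. Control was rated visually 0–100 relative to untreated plants after 7 to 21 days.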

mustard, wild = assay: Test D pre-/postemergence herbicide test; assay type: in vivo, Sinapis arvensis; conditions: Postemergence, Mustard, Wild, scale 0 to 100
In short: as §2

[1] = Preemergence, 62 g ai/ha, scale 0 to 100
[2] = Preemergence, 125 g ai/ha, scale 0 to 100 (0 no effect, 100 complete control)
[3] = Preemergence, 31 g ai/ha, scale 0 to 100 (0 no effect, 100 complete control)
[4] = Preemergence, 250 g ai/ha, scale 0 to 100 (0 no effect, 100 complete control)
[5] = Postemergence, 31 g ai/ha, scale 0 (no effect) to 100 (complete control)
[6] = Postemergence, 62 g ai/ha, scale 0 to 100 (0 no effect, 100 complete control)
[7] = Postemergence, 125 g ai/ha, scale 0 to 100 (0 no effect, 100 complete control)
[8] = Postemergence, 250 g ai/ha, scale 0 to 100 (0 no effect, 100 complete control)

Row | Structure (SMILES) | Plant response rating, Surinam Grass (surinam grass; 16 g ai/ha) | Plant response rating, Surinam Grass (surinam grass; 31 g ai/ha) | Plant response rating, Surinam Grass (surinam grass; 62 g ai/ha) | Plant response rating, Surinam Grass (surinam grass; 125 g ai/ha) | Plant response rating, Surinam Grass (surinam grass; 250 g ai/ha) | Plant response rating, Bromegrass, Downy (bromegrass, downy; [1]) | Plant response rating, Bromegrass, Downy (bromegrass, downy; [2]) | Bromegrass, Downy plant response rating (bromegrass, downy; [3]) | Plant response rating, Bromegrass, Downy (bromegrass, downy; [4]) | Plant response rating, Cupgrass, Woolly (cupgrass, woolly; [1]) | Plant response rating, Cupgrass, Woolly (cupgrass, woolly; [2]) | Cupgrass, Woolly plant response rating (cupgrass, woolly; [3]) | Plant response rating, Cupgrass, Woolly (cupgrass, woolly; [4]) | Plant response rating, Pigweed, Palmer (pigweed, palmer; 16 g ai/ha) | Plant response rating, Pigweed, Palmer (pigweed, palmer; 31 g ai/ha) | Plant response rating, Pigweed, Palmer (pigweed, palmer; 62 g ai/ha) | Plant response rating, Pigweed, Palmer (pigweed, palmer; 125 g ai/ha) | Plant response rating, Pigweed, Palmer (pigweed, palmer; 250 g ai/ha) | further results
1 | O=C1NCC(c2ccc(Cl)c(Cl)c2)C1C(=O)Nc1ccccc1F (racemic) [Compound 14] | 0 | 0 | 0 | 20 | 60 | 0 | 0 | 0 | 0 | 0 | 0 | 0 | 80 | 0 | 0 | 0 | 0 | 0 | 
2 | O=C1NCC(c2ccc(F)c(F)c2)C1C(=O)Nc1cccc(F)c1F (stereo not drawn) [Compound 17, N-(2,3-difluorophenyl)-4-(3,4-difluorophenyl)-2-oxo-3-pyrrolidinecarboxamide] | 0 | 0 | 50 | 70 | 75 | 30 | 45 | 0 | 65 | 85 | 90 | 80 | 95 | 0 | 0 | 0 | 0 | 0 | Plant response rating, Bromegrass, Downy (bromegrass, downy; [5]): 0; Plant response rating, Bromegrass, Downy (bromegrass, downy; [6]): 0; Plant response rating, Bromegrass, Downy (bromegrass, downy; [7]): 0; Plant response rating, Bromegrass, Downy (bromegrass, downy; [8]): 0; Plant response rating (windgrass; 16 g ai/ha): 0; Plant response rating (windgrass; 31 g ai/ha): 0; Plant response rating (windgrass; 62 g ai/ha): 0; Plant response rating (windgrass; 125 g ai/ha): 0; Plant response rating (windgrass; 250 g ai/ha): 0; Plant response rating, Cupgrass, Woolly (cupgrass, woolly; [5]): 0; Plant response rating, Cupgrass, Woolly (cupgrass, woolly; [6]): 0; Plant response rating, Cupgrass, Woolly (cupgrass, woolly; [7]): 0; Plant response rating, Cupgrass, Woolly (cupgrass, woolly; [8]): 0; Plant response rating (mustard, wild; 16 g ai/ha): 0; Plant response rating (mustard, wild; 31 g ai/ha): 0; Plant response rating (mustard, wild; 62 g ai/ha): 10; Plant response rating (mustard, wild; 125 g ai/ha): 30; Plant response rating (mustard, wild; 250 g ai/ha): 30
